According to patent US12209089B1, “Pyrimido[1′,6′: 1,5]pyrazolo[4,3-c] [2,7] naphthyridines as CK2 inhibitors” (KING FAISAL UNIVERSITY, priority 2024, dated 2025):

Columns and labels:
[1] = tested on: HL60 (leukemia); test: In vitro cytotoxic activity (MTT) assay, HL60; type: cell-based; settings: Homo sapiens, HL-60; HL60 (leukemia) cells, 96 hours exposure; read-out: Cytotoxicity activity IC50 (50% inhibition of cell proliferation)
Protocol: (§1) Compounds 1-16 were screened for their in vitro cytotoxic activity utilizing a 3-(4,5-dimethyl-thiazol-2-yl)-2,5-diphenyltetrazolium bromide (MTT) assay against selected cancer human cell lines consisting of PC3 (prostate), HCT116 (colon), A375 (melanoma), H1299 (lung), MIAPaCa-2 (pancreas), HL60 (leukemia), MCF7 (breast), MDA-MB-231 (breast) (T. Mosmann, J. Immunol. Meth., 1983, 65, 55-63). The cells were cultured at 37° C. in RMPI1640 medium supplemented with 10% fetal bovine serum, 50 IU/mL penicillin, and 50 μg/mL streptomycin in a 5% CO2 incubator. All cells were sub-cultured 3 times/week by trypsinisation. Viable cells were seeded and allowed to adhere for 12 hours before a test drug was added in 96-well plates at an initial density of 1.0×10^5 cells/mL. Tumor cell lines were separately exposed to various concentrations of the tested compounds followed by incubation at a temperature of 37° C. during 96 hours inside a medium of fresh RMPI 1640. Cells were subsequently incubated at 37° C. using MTT at 0.5 mg/mL during 4 hours. After removal of supernatant, formazan crystals were dissolved in isopropanol and the optical density was measured at 570 nm. CX-4945 was used as a positive control.

[2] = tested on: H1299 (lung); test: In vitro cytotoxic activity (MTT) assay, H1299; type: cell-based; settings: Homo sapiens, NCI-H1299; H1299 (lung) cells, 96 hours exposure; read-out: Cytotoxicity activity IC50 (50% inhibition of cell proliferation)
Protocol: as §1

[3] = tested on: MCF7 (breast); test: In vitro cytotoxic activity (MTT) assay, MCF7; type: cell-based; settings: Homo sapiens; MCF7 (breast) cells, 96 hours exposure; read-out: Cytotoxicity activity IC50 (50% inhibition of cell proliferation)
Protocol: as §1

[4] = tested on: MIAPaCa-2 (pancreas); test: In vitro cytotoxic activity (MTT) assay, MIAPaCa-2; type: cell-based; settings: Homo sapiens, MIA PaCa-2; MIAPaCa-2 (pancreas) cells, 96 hours exposure; read-out: Cytotoxicity activity IC50 (50% inhibition of cell proliferation)
Protocol: as §1

[5] = tested on: A375 (melanoma); test: In vitro cytotoxic activity (MTT) assay, A375; type: cell-based; settings: Homo sapiens, A-375; A375 (melanoma) cells, 96 hours exposure; read-out: Cytotoxicity activity IC50 (50% inhibition of cell proliferation)
Protocol: as §1

[6] = tested on: MDA-MB-231 (breast); test: In vitro cytotoxic activity (MTT) assay, MDA-MB-231; type: cell-based; settings: Homo sapiens; MDA-MB-231 (breast) cells, 96 hours exposure; read-out: Cytotoxicity activity IC50 (50% inhibition of cell proliferation)
Protocol: as §1

[7] = tested on: HCT116 (colon); test: In vitro cytotoxic activity (MTT) assay, HCT116; type: cell-based; settings: Homo sapiens, HCT-116; HCT116 (colon) cells, 96 hours exposure; read-out: Cytotoxicity activity IC50 (50% inhibition of cell proliferation)
Protocol: as §1

[8] = target: T1, recombinant human CK2 (holoenzyme) (Homo sapiens, UniProt P68400); test: CK2 Kinase Assay (33P-ATP, filter plate); type: biochemical; settings: recombinant human CK2, 10 min at 30° C., eight concentrations; read-out: protein kinase CK2 IC50
T1 construct: purchased Millipore
Protocol: CK2 Kinase Assay was conducted using the protocol as described in Pierre F. et al; J. Med. Chem. 2011, 54, 635-654. The tested compounds in aqueous solution were added at a volume of 10 μL to a reaction mixture comprising 10 μL of assay dilution buffer (ADB; 20 mM MOPS, pH 7.2, 25 mM B-glycerol phosphate, 5 mM EGTA, 1 mM sodium orthovanadate, and 1 mM dithiothreitol), 10 μL of substrate peptide (RRRDDDSDDD, dissolved in ADB at a concentration of 1 mM), 10 μL of recombinant human CK2 (RRBB-holoenzyme, 25 ng dissolved in ADB; Millipore). Reactions were initiated by the addition of 10 μL of ATP solution (90% 75 mMMgCl2, 75 μM ATP (final ATP concentration: […]) dissolved in ADB; 10% [y-33P]ATP (stock 1mCi/100 μL; 3000 Ci/mmol (Perkin-Elmer) and maintained for 10 min at 30° C. The reactions were quenched with 100 μL of 0.75% phosphoric acid and then transferred to and filtered through a phosphor cellulose filter plate (Millipore). After washing each well five times with 0.75% phosphoric acid, the plate was dried under vacuum for 5 min and, following the addition of 15 μL of scintillation fluid to each well, the residual radioactivity was measured using a Wallac […] counter. The IC50 values were derived from eight concentrations of test inhibitors.

[9] = tested on: PC3 (prostate); test: In vitro cytotoxic activity (MTT) assay, PC3; type: cell-based; settings: Homo sapiens, Prostate cell; PC3 (prostate) cells, 96 hours exposure; read-out: Cytotoxicity activity IC50 (50% inhibition of cell proliferation)
Protocol: as §1

T1 sequence (P68400 whole entry): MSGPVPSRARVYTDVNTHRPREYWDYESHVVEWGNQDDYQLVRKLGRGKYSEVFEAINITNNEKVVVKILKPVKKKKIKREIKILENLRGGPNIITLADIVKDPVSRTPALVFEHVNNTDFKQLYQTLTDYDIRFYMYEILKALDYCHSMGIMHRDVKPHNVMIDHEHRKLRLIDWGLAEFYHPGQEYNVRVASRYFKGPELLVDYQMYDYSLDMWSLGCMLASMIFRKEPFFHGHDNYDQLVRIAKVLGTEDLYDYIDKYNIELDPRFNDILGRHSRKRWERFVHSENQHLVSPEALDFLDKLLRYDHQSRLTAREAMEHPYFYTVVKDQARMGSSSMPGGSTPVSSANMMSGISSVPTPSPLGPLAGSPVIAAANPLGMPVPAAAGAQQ
T1 sequence (P67870 whole entry partner): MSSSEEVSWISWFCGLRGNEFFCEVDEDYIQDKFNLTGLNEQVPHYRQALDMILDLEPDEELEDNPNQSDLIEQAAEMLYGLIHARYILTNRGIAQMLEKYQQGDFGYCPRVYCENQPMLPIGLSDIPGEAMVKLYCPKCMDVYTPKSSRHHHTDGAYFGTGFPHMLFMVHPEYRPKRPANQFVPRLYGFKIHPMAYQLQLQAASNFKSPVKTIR

`Clc1cccc(Nc2nc3c(nn4cnccc34)c3ccncc23)c1` [Compound 1, N-(3-chlorophenyl)pyrimido[1′,6′: 1,5]pyrazolo[4,3-c][2,7]naphthyridin-5-amine] gave an IC50 [1] of 4000 nM, an IC50 [2] of 2300 nM and an IC50 [3] of 5300 nM. For the same compound, the IC50 [4] was 1100 nM, the IC50 [5] was 3600 nM and the IC50 [6] was 4500 nM. For the same compound, the IC50 [7] was 1200 nM, the IC50 [8] was 30 nM and the IC50 [9] was 1400 nM.
